Read-outs that look alike come from different tables or passages of the source.
Key:
Human Calpain 9/NS1 = biological target: T1, Human Calpain 9/NS1 (Homo sapiens, UniProt O14815); experiment: Calpain inhibition continuous fluorescence (FRET) assay, Human Calpain 9/NS1; assay type: biochemical; conditions: read-out: Human Calpain 9/NS1 IC50
T1 sequence (O14815 1-690): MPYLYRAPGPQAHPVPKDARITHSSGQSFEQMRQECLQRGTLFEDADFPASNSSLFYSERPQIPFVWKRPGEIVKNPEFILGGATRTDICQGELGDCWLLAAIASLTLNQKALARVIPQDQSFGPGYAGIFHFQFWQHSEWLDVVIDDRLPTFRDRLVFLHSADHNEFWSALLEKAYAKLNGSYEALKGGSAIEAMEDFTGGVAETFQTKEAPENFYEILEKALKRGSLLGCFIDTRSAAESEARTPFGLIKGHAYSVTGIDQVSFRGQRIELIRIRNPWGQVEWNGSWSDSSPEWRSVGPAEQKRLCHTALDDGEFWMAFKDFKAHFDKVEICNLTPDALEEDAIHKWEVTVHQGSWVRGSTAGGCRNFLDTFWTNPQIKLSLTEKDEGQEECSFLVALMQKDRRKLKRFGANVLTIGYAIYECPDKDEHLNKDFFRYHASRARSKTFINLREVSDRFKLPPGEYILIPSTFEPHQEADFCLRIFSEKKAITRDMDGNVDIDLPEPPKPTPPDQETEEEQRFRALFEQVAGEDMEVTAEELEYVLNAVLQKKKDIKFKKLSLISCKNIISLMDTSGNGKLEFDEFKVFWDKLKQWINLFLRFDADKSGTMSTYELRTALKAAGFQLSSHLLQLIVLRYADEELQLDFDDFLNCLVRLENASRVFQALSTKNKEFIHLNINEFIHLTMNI
T1 sequence (P04632 1-268 partner): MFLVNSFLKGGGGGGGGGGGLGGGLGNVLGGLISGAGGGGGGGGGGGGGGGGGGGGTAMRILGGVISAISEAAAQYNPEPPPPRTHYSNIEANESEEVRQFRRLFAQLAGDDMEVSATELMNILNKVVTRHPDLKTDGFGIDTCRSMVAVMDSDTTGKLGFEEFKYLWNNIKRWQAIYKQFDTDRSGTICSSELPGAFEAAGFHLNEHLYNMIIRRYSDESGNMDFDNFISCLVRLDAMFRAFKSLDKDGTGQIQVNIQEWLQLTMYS
Outline: (§1)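 Calpain activity is measured kinetically with a quenched FRET peptide in 50 mM Tris pH 7.5, 100 mM NaCl, 1 mM DTT, with CaCl2 triggering activation. Rates over 1-5 min are plotted against log inhibitor to obtain IC50 by 4-parameter logistic fitting.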

Human Calpain 1/NS1 = biological target: T2, Human Calpain 1/NS1 (Homo sapiens, UniProt P07384); experiment: Calpain inhibition continuous fluorescence (FRET) assay, Human Calpain 1/NS1; assay type: biochemical; conditions: read-out: Human Calpain 1/NS1 IC50
T2 sequence (P07384 1-714): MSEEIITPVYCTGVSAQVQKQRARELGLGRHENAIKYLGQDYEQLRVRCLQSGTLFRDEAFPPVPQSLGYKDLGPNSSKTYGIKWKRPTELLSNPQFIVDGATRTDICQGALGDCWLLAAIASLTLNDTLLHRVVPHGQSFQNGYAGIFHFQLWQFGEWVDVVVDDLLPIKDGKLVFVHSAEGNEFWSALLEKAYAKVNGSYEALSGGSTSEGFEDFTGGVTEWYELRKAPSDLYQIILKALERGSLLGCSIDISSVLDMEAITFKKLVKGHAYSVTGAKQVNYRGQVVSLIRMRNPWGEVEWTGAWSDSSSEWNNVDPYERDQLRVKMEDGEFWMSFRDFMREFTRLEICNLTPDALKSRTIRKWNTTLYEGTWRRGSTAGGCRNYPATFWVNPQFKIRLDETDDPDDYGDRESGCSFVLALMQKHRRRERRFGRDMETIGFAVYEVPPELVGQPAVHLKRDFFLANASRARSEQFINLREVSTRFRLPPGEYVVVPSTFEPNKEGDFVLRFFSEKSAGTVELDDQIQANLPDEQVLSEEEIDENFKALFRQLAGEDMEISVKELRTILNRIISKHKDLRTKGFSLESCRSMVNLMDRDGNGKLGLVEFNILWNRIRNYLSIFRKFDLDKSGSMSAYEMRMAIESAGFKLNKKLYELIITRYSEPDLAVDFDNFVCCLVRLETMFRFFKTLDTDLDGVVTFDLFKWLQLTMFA
T2 sequence (P04632 1-268 partner): T1 sequence (P04632 1-268 partner)
Outline: as §1

Human Calpain 2/NS1 = biological target: T3, Human Calpain 2/NS1 (Homo sapiens, UniProt P17655); experiment: Calpain inhibition continuous fluorescence (FRET) assay, Human Calpain 2/NS1; assay type: biochemical; conditions: read-out: Human Calpain 2/NS1 IC50
T3 sequence (P17655 1-700): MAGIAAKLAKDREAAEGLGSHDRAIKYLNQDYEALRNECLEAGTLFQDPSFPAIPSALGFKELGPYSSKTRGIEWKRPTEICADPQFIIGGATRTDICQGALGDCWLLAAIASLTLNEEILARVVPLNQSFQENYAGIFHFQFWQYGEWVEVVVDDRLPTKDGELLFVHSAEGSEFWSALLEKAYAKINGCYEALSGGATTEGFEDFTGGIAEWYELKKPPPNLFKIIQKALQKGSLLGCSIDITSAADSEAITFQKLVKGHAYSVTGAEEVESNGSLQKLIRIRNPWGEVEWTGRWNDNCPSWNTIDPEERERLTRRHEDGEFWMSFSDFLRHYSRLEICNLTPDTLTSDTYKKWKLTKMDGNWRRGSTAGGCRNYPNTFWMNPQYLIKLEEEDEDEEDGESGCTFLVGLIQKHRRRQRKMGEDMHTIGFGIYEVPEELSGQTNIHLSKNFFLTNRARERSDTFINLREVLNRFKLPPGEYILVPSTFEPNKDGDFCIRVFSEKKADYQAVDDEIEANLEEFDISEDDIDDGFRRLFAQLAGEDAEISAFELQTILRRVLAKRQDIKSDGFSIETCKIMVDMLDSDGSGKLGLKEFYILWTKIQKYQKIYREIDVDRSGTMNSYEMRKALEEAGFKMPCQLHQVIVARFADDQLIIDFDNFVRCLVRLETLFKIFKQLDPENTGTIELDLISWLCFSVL
T3 sequence (P04632 1-268 partner): T1 sequence (P04632 1-268 partner)
Outline: as §1

[1] = system: Calpain activity in SH-SY5Y cells (SBDP-150); experiment: SH-SY5Y Spectrin western blot assay (SBDP-150 breakdown product, A23187-induced); assay type: cell-based; conditions: SH-SY5Y cells, read-out: SH-SY5Y Spectrin IC50
[2] = system: Calpain activity in SH-SY5Y cells; experiment: SH-SY5Y + AMC fluorescence assay (Suc-LLVY-AMC substrate); assay type: cell-based; conditions: read-out: SH-SY5Y + AMC IC50
[3] = Homo sapiens, A23187-induced SBDP-150, western blot
[4] = Homo sapiens, Column D, A23187-induced SBDP-150

Compound | IC50 (Human Calpain 9/NS1) [µM] | IC50 (Human Calpain 1/NS1) [µM] | IC50 (Human Calpain 2/NS1) [µM] | IC50 [1, 3] [µM] | IC50 [2] [µM] | IC50 (Human Calpain 9/NS1; Column C) [µM] | IC50 (Human Calpain 1/NS1; Column A) [µM] | IC50 (Human Calpain 2/NS1; Column B) [µM] | IC50 [1, 4] [µM] | IC50 ([2]; Column E) [µM] | IC50 ([1]; A23187-induced SBDP-150, western blot) [µM]
NC(=O)C(=O)C(Cc1ccccc1)NC(=O)c1cnoc1-c1cccc(F)c1 (stereo not drawn) [Compound 559, N-(4-amino-3,4-dioxo-1-phenylbutan-2-yl)-5-(3-fluorophenyl)isoxazole-4-carboxamide] | < 3 | < 3 | < 3 | 10 to 25 | > 25 | – | – | – | – | – | –
NC(=O)C(=O)C(Cc1ccccc1)NC(=O)c1nsnc1Br (stereo not drawn) [Compound 366, N-(4-amino-3,4-dioxo-1-phenylbutan-2-yl)-4-bromo-1,2,5-thiadiazole-3-carboxamide] | < 3 | < 3 | < 3 | 10 to 25 | < 10 | – | – | – | – | – | –
Cc1cc(C(=O)N[C@@H](Cc2ccccc2)C(=O)C(N)=O)n(-c2ncccn2)n1 [Compound 49, (S)—N-(4-amino-3,4-dioxo-1-phenylbutan-2-yl)-3-methyl-1-(pyrimidin-2-yl)-1H-pyrazole-5-carboxamide] | – | – | – | – | – | < 3 | < 3 | < 3 | < 10 | < 10 | –
Cc1cc(C(=O)N[C@@H](Cc2ccccc2)C(=O)C(N)=O)n(-c2ccc(COc3ccccc3)cc2)n1 [Compound 131, (S)—N-(4-amino-3,4-dioxo-1-phenylbutan-2-yl)-3-methyl-1-(4-(phenoxymethyl)phenyl)-1H-pyrazole-5-carboxamide] | – | – | – | – | – | < 3 | < 3 | < 3 | 10 to 25 | > 25 | –
NC(=O)C(=O)C(Cc1ccccc1)NC(=O)c1nsnc1-c1ccccc1F (stereo not drawn) [Compound 327, N-(4-amino-3,4-dioxo-1-phenylbutan-2-yl)-4-(2-fluorophenyl)-1,2,5-thiadiazole-3-carboxamide] | < 3 | < 3 | < 3 | < 10 | < 10 | – | – | – | – | – | –
Cc1cc(C(=O)N[C@@H](Cc2ccccc2)C(=O)C(N)=O)n(-c2ccc3ccccc3n2)n1 [Compound 15, (S)—N-(4-amino-3,4-dioxo-1-phenylbutan-2-yl)-3-methyl-1-(quinolin-2-yl)-1H-pyrazole-5-carboxamide] | – | – | – | – | – | < 3 | < 3 | < 3 | < 10 | 10 to 25 | –
Cn1cc(C(=O)NC(Cc2ccccc2)C(=O)C(N)=O)c(-c2cncc3ccccc23)n1 (stereo not drawn) [Compound 591, N-(4-amino-3,4-dioxo-1-phenylbutan-2-yl)-3-(isoquinolin-4-yl)-1-methyl-1 h-pyrazole-4-carboxamide] | < 3 | < 3 | < 3 | > 25 | > 25 | – | – | – | – | – | –
N-(4-amino-3,4-dioxo-1-phenylbutan-2-yl)-3-(5-fluoropyridin-3-yl)-1-methyl-1H-pyrazole-4-carboxamide [Compound 506] | < 3 | < 3 | < 3 | – | 10 to 25 | – | – | – | – | – | 10 to 25
NC(=O)C(=O)[C@H](Cc1ccccc1)NC(=O)c1cncn1-c1ccc(-c2ccccc2)nn1 [Compound 200, (S)—N-(4-amino-3,4-dioxo-1-phenylbutan-2-yl)-1-(6-phenylpyridazin-3-yl)-1H-imidazole-5-carboxamide] | – | – | – | – | – | < 3 | < 3 | < 3 | 10 to 25 | > 25 | –
Cn1cc(C(=O)N[C@@H](Cc2ccccc2)C(=O)C(N)=O)c(-c2cccc(C#N)c2)n1 [Compound 185, (S)—N-(4-amino-3,4-dioxo-1-phenylbutan-2-yl)-3-(3-cyanophenyl)-1-methyl-1H-pyrazole-4-carboxamide] | – | – | – | – | – | 3 to 10 | > 10 | 3 to 10 | > 25 | > 25 | –
Cn1cc(C(=O)NC(CCC(F)(F)F)C(=O)C(N)=O)c(-c2ccccc2)n1 (stereo not drawn) [Compound 422, N-(1-amino-6,6,6-trifluoro-1,2-dioxohexan-3-yl)-1-methyl-3-phenyl-1H-pyrazole-4-carboxamide] | 3 to 10 | > 10 | 3 to 10 | > 25 | > 25 | – | – | – | – | – | –
NC(=O)C(=O)C(Cc1ccccc1)NC(=O)c1oc(C(F)(F)F)nc1-c1ccccc1F (stereo not drawn) [Compound 358, N-(4-amino-3,4-dioxo-1-phenylbutan-2-yl)-4-(2-fluorophenyl)-2-(trifluoromethyl)oxazole-5-carboxamide] | < 3 | < 3 | < 3 | 10 to 25 | < 10 | – | – | – | – | – | –
NC(=O)C(=O)[C@H](Cc1ccccc1)NC(=O)c1cn(C#Cc2ccccc2)c2ccccc12 [Compound 252, (S)—N-(4-amino-3,4-dioxo-1-phenylbutan-2-yl)-1-(phenylethynyl)-1H-indole-3-carboxamide] | – | – | – | – | – | > 10 | > 10 | > 10 | > 25 | > 25 | –
Cc1occ(C(=O)N[C@@H](Cc2ccccc2)C(=O)C(N)=O)c1-c1ccccc1 [Compound 430, (S)—N-(4-amino-3,4-dioxo-1-phenylbutan-2-yl)-5-methyl-4-phenylfuran-3-carboxamide] | < 3 | < 3 | < 3 | < 10 | < 10 | – | – | – | – | – | –
COc1cc(C(=O)NC(Cc2ccccc2)C(=O)C(N)=O)n(-c2ccccc2)n1 (stereo not drawn) [Compound 392, N-(4-amino-3,4-dioxo-1-phenylbutan-2-yl)-3-methoxy-1-phenyl-1H-pyrazole-5-carboxamide] | > 10 | > 10 | > 10 | 10 to 25 | < 10 | – | – | – | – | – | –

Source: patent US11339130B1 (Blade Therapeutics, Inc., priority 2016, dated 2022)
